Measured values as given in the supplement of paper PMC10307832.

Columns and labels:
Experiment in all cases: relative viability (nuclei count vs DMSO), 5 days (fraction); higher = more cells survive
Tanzisertib + Trametinib = compound: O[C@H]1CC[C@H](Nc2ncc3nc(Nc4c(F)cc(F)cc4F)n([C@H]4CCOC4)c3n2)CC1 [Tanzisertib] + CC(=O)Nc1cccc(-n2c(=O)n(C3CC3)c(=O)c3c(Nc4ccc(I)cc4F)n(C)c(=O)c(C)c32)c1 [Trametinib] (partner 0.02 µM)
Method in brief: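 Lung cancer cell lines were pin-tool dosed in 1536-well plates on the day after seeding, with either a lone drug or a fixed anchor-drug dose plus five library-drug doses (not always all listed) in √10 steps. Nuclei were counted on 4× images after 5 days. Relative viability is the ratio of treated-well to vehicle-well nuclei counts, with each value a median of duplicate plates.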

[1] = compound: C1CNCCC1C2=CC(=NN2)C3=CC=NC=C3
Method in brief: (§1)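 Acceptance criteria were a control CV below 25% and at least one doubling per plate. Lung cancer cell lines in 1536-well plates got five library-drug doses (not always all listed) √10 apart by pinning and were left 5 days with no medium change. Viability divides treated-well nuclei by vehicle-well nuclei and is the median across plates. Nuclei were counted by MetaXpress from 4× Hoechst images.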

[2] = compound: C[C@@H](N)c1ccc(C(=O)Nc2ccnc3[nH]ccc23)cc1
Method in brief: as §1

Tanzisertib = compound: O[C@H]1CC[C@H](Nc2ncc3nc(Nc4c(F)cc(F)cc4F)n([C@H]4CCOC4)c3n2)CC1 [Tanzisertib]
Method in brief: as §1

UMC-11
relative viability (Tanzisertib + Trametinib; first compound 0.08 µM): 0.735
relative viability (Tanzisertib + Trametinib; first compound 0.253 µM): 0.695
relative viability (Tanzisertib + Trametinib; first compound 0.8 µM): 0.759
relative viability (Tanzisertib + Trametinib; first compound 2.53 µM): 0.719
relative viability (Tanzisertib + Trametinib; first compound 8 µM): 0.764
relative viability ([1]; 0.08 µM): 0.862
relative viability ([1]; 0.8 µM): 1.16
relative viability ([1]; 2.53 µM): 1.01
relative viability ([1]; 8 µM): 0.992
relative viability ([2]; 0.04 µM): 0.954
relative viability ([2]; 0.1265 µM): 1.07
relative viability ([2]; 0.4 µM): 1.16
relative viability ([2]; 1.265 µM): 0.712
relative viability ([2]; 4 µM): 0.784
relative viability (Tanzisertib; 0.08 µM): 1.09
relative viability (Tanzisertib; 0.253 µM): 0.973
relative viability (Tanzisertib; 0.8 µM): 1.01
relative viability (Tanzisertib; 2.53 µM): 0.987
relative viability (Tanzisertib; 8 µM): 1.01
